“And” between values parts separate entries of the source, which are not always exact repeats. Identical values can stand only once.
Assays:
[1] = biological target: T1, human GnRH receptors (Homo sapiens, UniProt P30968); assay: Radioligand binding: inhibition of 125I-GnRH-A binding to human GnRH receptor membranes; settings: HEK 293 cell membranes
T1 construct: expressed in transfected cells; host or cells: HEK 293 cells, stably transfected; membranes
T1 sequence (P30968 1-328): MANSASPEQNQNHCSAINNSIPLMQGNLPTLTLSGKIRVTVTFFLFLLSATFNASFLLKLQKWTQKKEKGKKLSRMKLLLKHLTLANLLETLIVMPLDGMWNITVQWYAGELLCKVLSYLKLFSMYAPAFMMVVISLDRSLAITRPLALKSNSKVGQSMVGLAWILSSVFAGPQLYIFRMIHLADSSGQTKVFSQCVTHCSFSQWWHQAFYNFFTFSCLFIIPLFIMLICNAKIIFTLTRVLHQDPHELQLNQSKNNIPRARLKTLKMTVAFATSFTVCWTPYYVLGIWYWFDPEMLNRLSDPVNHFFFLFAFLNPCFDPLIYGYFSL
How it was run: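 Membranes from rat pituitaries, or HEK 293 cells stably expressing mouse or human receptor, incubated 1 hour at room temperature with ~0.04-0.06 nM radioligand (HEPES pH 7.4, EDTA, MgCl2, BSA) and competitor at 0.1-10,000 nM. Bound ligand collected by GF/C filtration and counted; Ki derived from IC50 by Cheng-Prusoff.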

[2] = biological target: T2, rat GnRH receptor (Rattus norvegicus, UniProt P30969); assay: Radioligand binding: inhibition of 125I-GnRH-A binding to rat GnRH receptor (rat pituitary membranes); settings: read-out: Ki (nM), Inhibition Binding of 125I-GnRH-A to GnRH Receptors
T2 construct: or rat pituitaries (Pel Freez Biologicals, Rogers, Ark.) were homogenized; tissue Pel Freez Biologicals; host or cells: rat pituitaries (membrane preparation)
T2 sequence (P30969 1-327): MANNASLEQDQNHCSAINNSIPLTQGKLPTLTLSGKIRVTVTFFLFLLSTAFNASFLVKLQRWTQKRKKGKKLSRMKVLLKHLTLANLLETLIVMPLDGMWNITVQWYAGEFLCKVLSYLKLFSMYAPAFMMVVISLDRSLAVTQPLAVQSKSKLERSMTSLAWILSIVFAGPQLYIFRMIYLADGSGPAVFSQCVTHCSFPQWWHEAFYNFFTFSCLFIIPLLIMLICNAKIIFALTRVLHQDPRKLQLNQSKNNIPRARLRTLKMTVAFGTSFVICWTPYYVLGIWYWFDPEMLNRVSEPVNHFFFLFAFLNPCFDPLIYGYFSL
Description: HEK 293 cells containing mouse or human receptors, or rat pituitaries (Pel Freez Biologicals, Rogers, Ark.) were homogenized in buffer A containing: 50 mM Tris (pH 7.4), 0.32 M sucrose, 2 mM EGTA, 1 mM PMSF, 5 μg/ml aprotinen, 5 μg/ml Pepstatin A, and 1 μg/ml leupeptin. Homogenized cells were centrifuged at 4° C. at 20,000×g for 25 minutes, re-suspended in buffer A and re-centrifuged at 4° C. at 20,000×g for an additional 25 minutes. Total membrane protein was determined with a BCA kit (Pierce, Rockford, Ill.). Membranes were stored at −70° C. at a final membrane protein concentration of approximately 5 mg/ml.
The radioiodinated agonist analog of GnRH, [des-Gly^10,D-Ala^6]GnRH ethylamide (^125I-GnRH-A), was used as the radioligand. […] The reaction mixture was vortexed and incubated for 1 minute at room temperature. After one minute, the mixture was vortexed and allowed to incubate for an additional minute. 2 ml of 0.5 M acetic acid/1% BSA was added to the reaction tube and the mixture was added to a C18 Sep-Pak cartridge. The cartridge was washed with subsequent washes of 5 ml H2O and 5 ml 0.5 M acetic acid and then eluted with 5×1 ml of 60% CH3CN/40% 0.5 M acetic acid. The eluate was diluted with 3× volume of HPLC buffer A (0.1% TFA in H2O) and loaded onto a C18 column. The iodinated product was eluted over 20-25 min with a gradient of 25-100% CH3CN containing 0.1% TFA. The radioactive fractions (750 μl/fraction) were collected into clean polypropylene tubes containing 100 μl of 10% BSA. Fractions were assessed for biological activity by radioligand binding. Specific activity of the radioligand was approximately 2200 Ci/mmol.
Membranes were diluted to 0.01-0.5 mg/ml (depending upon the species of receptor) with assay buffer containing 50 mM HEPES (pH 7.4), 1 mM EDTA, 2.5 mM MgCl2, and 0.1% BSA. Membranes (diluted to utilize similar receptor numbers between assays) were incubated with approximately 0.04-0.06 nM ^125I-GnRH-A in the presence or absence of competing agents (0.1-10,000 nM) in a total volume of 200 μl in 96-well polypropylene plates for 1 hour at room temperature. Assays were stopped by rapid filtration onto 96-well GF/C filters soaked in 0.1% polyethylenimine (PEI) utilizing a Packard 96-well cell harvester. Filters were washed three times with ice-cold PBS (50 mM NaPO4, 0.9% NaCl, 2 mM MgCl2, and 0.02% NaN3, pH 7.4). 35 μl of scintillation cocktail was added to each filter well and filters were counted on a Packard Topcount. Control dose-response curves were generated to GnRH (0.1 nM-100 nM) in each competition binding experiment. Ki values were calculated from IC50 values according to Cheng et al., Biochemical Pharmacol. 22: 3099-3108, 1973. [formula]

[3] = In vitro metabolism: disappearance of parent compound in rat liver microsomes (male, female); assay type: in vitro ADME; settings: female rat liver microsomes, 5 uM compound, 30 minutes 37° C.
Description: (§1) Human, rat, dog, and monkey liver microsomes were isolated by differential centrifugation. Specimens of human liver were obtained from the International Institute for the Advancement of Medicine (Scranton, Pa.). The disappearance of the parent compound was studied in a mixture containing 5 uM compound, 0.5 mg/ml microsomal protein, and 2 mM NADPH in 50 mM K phosphate buffer, pH 7.4. Samples were incubated for 30 minutes at 37° C. The reaction was terminated by the addition of acetonitrile and compounds analyzed by LC-MS as described above.

[4] = In vitro metabolism: disappearance of parent compound in human liver microsomes; assay type: in vitro ADME; settings: 5 uM compound, 0.5 mg/ml protein, 2 mM NADPH, 30 minutes 37° C.
Description: as §1

| Structure (SMILES) | Ki [1] [nM] | Ki [2] [nM] | Fem. Rat (FR) % rem. 30′ [3] | Human % rem. 30′ [4] |
| --- | --- | --- | --- | --- |
| COc1nc(NCCCN(C)C)nc(OC)c1NC(=O)c1ccc(Cc2c(C)cc(C)c3c2OCC3(C)C)o1 [Example H4, N-(2-{[3-(Dimethylamino)propyl]amino}-4,6-dimethoxypyrimidin-5-yl)-5-[(3,3,4,6-tetramethyl-2,3-dihydro-1-benzofuran-7-yl)methyl]-2-furamide] | 13 | 16 | – | – |
| COc1nc(NCC2(O)CCN(C)CC2)nc(OC)c1NC(=O)c1ccc(Cc2cc3c(cc2C)C(C)(C)OC3(C)C)o1 [Example D56, N-(2-{[(4-Hydroxy-1-methylpiperidin-4-yl)methyl]amino}-4,6-dimethoxypyrimidin-5-yl)-5-[(1,1,3,3,6-pentamethyl-1,3-dihydro-2-benzofuran-5-yl)methyl]-2-furamide Acetate] | 30 | 14 | – | – |
| COc1nc(NC2CCN(C)CC2)nc(OC)c1NC(=O)c1ccc(Cc2cc3c(cc2C)C(C)(C)OC3(C)C)o1 [Example D13, N-{4,6-Dimethoxy-2-[(1-methylpiperidin-4-yl)amino]pyrimidin-5-yl}-5-[(1,1,3,3,6-pentamethyl-1,3-dihydro-2-benzofuran-5-yl)methyl]-2-furamide] | 38 | 16 | – | – |
| CCCCC(CC)COCCCNc1nc(OC)c(NC(=O)c2ccc(Cc3cc4c(cc3C)C(C)(C)OC4(C)C)o2)c(OC)n1 (stereo not shown) [Example D39, N-[2-({3-[(2-Ethylhexyl)oxy]propyl}amino)-4,6-dimethoxypyrimidin-5-yl]-5-[(1,1,3,3,6-pentamethyl-1,3-dihydro-2-benzofuran-5-yl)methyl]-2-furamide] | 19 | 5.4 | – | – |
| COc1nc(NCCCN(C)C)nc(OC)c1NC(=O)c1ccc(Cc2c(C)cc3c(c2C)C(C)(C)CCO3)o1 [Example I3, N-(2-{[3-(Dimethylamino)propyl]amino}-4,6-dimethoxypyrimidin-5-yl)-5-[(4,4,5,7-tetramethyl-3,4-dihydro-2H-chromen-6-yl)methyl]-2-furamide] | 36 | 22 | – | – |
| COCCOc1nc(OC)c(NC(=O)c2ccc(Cc3cc4c(cc3C)C(C)(C)OC4(C)C)o2)c(OC)n1 [Example A4, 5-(1,1,3,3,6-Pentamethyl-1,3-dihydro-isobenzofuran-5-ylmethyl)-furan-2-carboxylic acid [4,6-dimethoxy-2-(2-methoxy-ethoxy)-pyrimidin-5-yl]-amide] | 18 | 9.5 | – | – |
| COc1nc(NCCN(C)C(=O)c2ccc(Cc3cc4c(cc3C)C(C)(C)OC4(C)C)o2)nc(OC)c1NC(=O)c1ccc(Cc2cc3c(cc2C)C(C)(C)OC3(C)C)o1 [Example D2] | 14 | 11 | 84% and 82% | 76% and 83% |
| COc1nc(N2CCc3nc(N(C)C)ncc3C2)nc(OC)c1NC(=O)c1ccc(Cc2cc3c(cc2C)C(C)(C)OC3(C)C)o1 [Example D59, N-{2-[2-(Dimethylamino)-7,8-dihydropyrido[4,3-d]pyrimidin-6(5H)-yl]-4,6-dimethoxypyrimidin-5-yl}-5-[(1,1,3,3,6-pentamethyl-1,3-dihydro-2-benzofuran-5-yl)methyl]-2-furamide] | 42 | 14 | – | – |
| COc1nc(N2CCC3CNC(=O)C3C2)nc(OC)c1NC(=O)c1ccc(Cc2cc3c(cc2C)C(C)(C)OC3(C)C)o1 (stereo not shown) [Example D40, N-[4,6-Dimethoxy-2-(3-oxooctahydro-5H-pyrrolo[3,4-c]pyridin-5-yl)pyrimidin-5-yl]-5-[(1,1,3,3,6-pentamethyl-1,3-dihydro-2-benzofuran-5-yl)methyl]-2-furamide] | 27 | 30 | – | – |

These reach a lower Ki [1]. Values come first.

| Ki [1] [nM] | Ki [2] [nM] | Fem. Rat (FR) % rem. 30′ [3] | Human % rem. 30′ [4] | Structure (SMILES) |
| --- | --- | --- | --- | --- |
| 8.6 | 3.4 | – | – | COc1nc(NCc2ccc(N)cc2)nc(OC)c1NC(=O)c1ccc(Cc2cc3c(cc2C)C(C)(C)OC3(C)C)o1 [Example D44, N-{2-[(4-Aminobenzyl)amino]-4,6-dimethoxypyrimidin-5-yl}-5-[(1,1,3,3,6-pentamethyl-1,3-dihydro-2-benzofuran-5-yl)methyl]-2-furamide] |
| 1 | 0.32 | – | – | CNCCCNc1nc(OC)c(NC(=O)c2ccc(Cc3cc4c(cc3C)C(C)(C)OC4(C)C)o2)c(OC)n1 [Example D60, N-(4,6-Dimethoxy-2-{[3-(methylamino)propyl]amino}-5-pyrimidinyl)-5-[(1,1,3,3,6-pentamethyl-1,3-dihydro-2-benzofuran-5-yl)methyl]-2-furamide] |
| 4 | 2.6 | – | – | COc1nc(NCc2c(F)cccc2F)nc(OC)c1NC(=O)c1ccc(Cc2cc3c(cc2C)C(C)(C)OC3(C)C)o1 [Example D73, N-{2-[(2,6-difluorobenzyl)amino]-4,6-dimethoxypyrimidin-5-yl}-5-[(1,1,3,3,6-pentamethyl-1,3-dihydro-2-benzofuran-5-yl)methyl]-2-furamide] |
| 11 | 8.2 | – | – | COc1nc(NCCCN2CCN(C)CC2)nc(OC)c1NC(=O)c1ccc(Cc2c(C)cc(C)c3c2OCC3(C)C)o1 [Example H5] |
| 3.5 | 2.4 | – | – | COc1nc(N2CCN(CCN)CC2)nc(OC)c1NC(=O)c1ccc(Cc2cc3c(cc2C)C(C)(C)OC3(C)C)o1 [Example D15, N-{2-[4-(2-Aminoethyl)piperazin-1-yl]-4,6-dimethoxypyrimidin-5-yl}-5-[(1,1,3,3,6-pentamethyl-1,3-dihydro-2-benzofuran-5-yl)methyl]-2-furamide] |
| 8.7 | 1.9 | – | – | COc1nc(NCCCn2ccnc2)nc(OC)c1NC(=O)c1ccc(Cc2cc3c(cc2C)C(C)(C)OC3(C)C)o1 [Example D19, N-(2-{[3-(1H-Imidazol-1-yl)propyl]amino}-4,6-dimethoxypyrimidin-5-yl}-5-[(1,1,3,3,6-pentamethyl-1,3-dihydro-2-benzofuran-5-yl)methyl]-2-furamide] |
| 12 | 15 | – | – | COc1nc(N(C)CCCCCCO)nc(OC)c1NC(=O)c1ccc(Cc2cc3c(cc2C)C(C)(C)OC3(C)C)o1 [Example D41, N-{2-[(6-Hydroxyhexyl)(methyl)amino]-4,6-dimethoxypyrimidin-5-yl}-5-[(1,1,3,3,6-pentamethyl-1,3-dihydro-2-benzofuran-5-yl)methyl]-2-furamide] |
